Measurements from patent US11992492B2, “Composition for preventing or treating cellular senescence-associated diseases, containing homoharringtonine as active ingredient” (RESEARCH COOPERATION FOUNDATION OF YEUNGNAM UNIVERSITY, priority 2018, dated 2024).

Experiments:
[1] = tested on: replicative senescent human fibroblasts; test: LDH activity analysis (cytotoxicity) in young and replicative senescent human fibroblasts; type: cell-based; conditions: young vs replicative senescent fibroblasts; FIG. 2C
Protocol: Cytotoxicity against young and senescent cells was investigated with a lactate dehydrogenase (LDH) activity kit (Dojindo Molecular Technologies Inc.). Young cells (1×10^3 cells/100 μl/well) or senescent cells (2×10^3 cells/100 μl/well) were dispensed into a 96-well plate, and then cultured overnight in a 37° C., 5% CO2 incubator. Homoharringtonine, ABT263 and rapamycin were treated at each concentration, and then incubated for 4 days in a 37° C., 5% CO2 incubator. After transferring the cell culture solution to a 1.5 ml tube, it was centrifuged at 4° C. and 12,000 rpm. 100 μl of the supernatant was dispensed into a 96-well plate, and 100 μl of the LDH measurement solution was added to each well, followed by reaction in a CO2 incubator for 30 minutes. 50 μl of the LDH reaction stop solution was added, and absorbance was measured at 490 nm using a microplate reader. The level of LDH activity was expressed as a relative value based on the absorbance of the control group treated with only DMSO.

[2] = tested on: human retinal pigmented epithelial cells; test: CCK-8 analysis and LDH activity analysis in retinal pigmented epithelial cells; type: cell-based; conditions: ARPE young and doxorubicin-senescent; FIG. 6D, 6E
Protocol: Young cells (1×10^3 cells/well) or senescent cells (2×10^3 cells/well) were dispensed into a 96-well plate, and cultured overnight in a 37° C., 5% CO2 incubator.
Homoharringtonine, ABT263 and rapamycin were treated at each concentration, and then incubated for 4 days in a 37° C., 5% CO2 incubator. 10 μl of CCK-8 reagent (Dojindo Molecular Technologies Inc., Kumamoto, Japan) was added to each well, and incubated for 2 hours in an incubator. Then, the absorbance was measured at 450 nm using a Microplate reader. The degree of cell survival was expressed as a relative value for the absorbance of the control group treated with only DMSO as 100%.
Cytotoxicity against young and senescent cells was investigated with a lactate dehydrogenase (LDH) activity kit (Dojindo Molecular Technologies Inc.). Young cells (1×10^3 cells/100 μl/well) or senescent cells (2×10^3 cells/100 μl/well) were dispensed into a 96-well plate, and then cultured overnight in a 37° C., 5% CO2 incubator.
Homoharringtonine, ABT263 and rapamycin were treated at each concentration, and then incubated for 4 days in a 37° C., 5% CO2 incubator. […] 50 μl of the LDH reaction stop solution was added, and absorbance was measured at 490 nm using a microplate reader. The level of LDH activity was expressed as a relative value based on the absorbance of the control group treated with only DMSO.

COC(=O)C[C@](O)(CCCC(C)(C)O)C(=O)O[C@@H]1C(OC)=C[C@]23CCCN2CCc2cc4c(cc2[C@H]13)OCO4 [homoharringtonine, Homoharringtonine]
LDH activity (cytotoxicity) [1]: increased only in replicative senescent cells compared to young cells | senescent cell-specific cytotoxicity (CCK-8 analysis and LDH activity analysis) [2]: not induced
